Experimental findings from patent US20260071239A1, “COMPOSITIONS AND METHODS FOR IMPROVED CELL CULTURE EFFICIENCY” (Amyris, Inc., priority 2022, published 2026) are described below.

SMILES strings stand for the structures. In brackets after ≈: the same amount, converted by molar mass.

This test deals with host cells. As to the kind of experiment: Inhibition of host cells by myrcene during fermentation. The test is classed as cell-based. Conditions: host cells in fermentation; read-out: IC50 (inhibitory to host cells).

On to `C=CC(=C)CCC=C(C)C` [Myrcene, myrcene], for which the IC50 lay in the range of 50 to 100 µg/mL (≈ 367 to 734 µM).

As usually defined, the IC50 is the midpoint of a concentration-inhibition curve.
